Data taken from publication PMC11251039, “Harnessing cholesterol uptake of malaria parasites for therapeutic applications” (EMBO Molecular Medicine, 2024).
pIC50: −log10 of the molar value. Several values for one entry are separate records, joined by “and”; a condition that tells them apart may be missing. Equal values may be shown once.

Tests used:
[1] = test system: P. falciparum stage III–IV gametocytes; assay: P. falciparum gametocyte viability assay (MitoTracker, flow cytometry), stage III-IV; format: cell-based, Plasmodium falciparum; conditions: 48 h; for Gametocyte stage III-IV viability, percentage of control: replicate values, source data Fig. 2C
Method: (§1) Gametocyte assays commenced seven days (stage III–IV) or ten days (stage V) post-invasion. […]
(§2) Plasmodium falciparum Gametocyte Viability Assays:
(§3) Asexual P. falciparum parasites were induced to form gametocytes as described (21).
(§4) Synchronized trophozoite-stage parasites at 2% parasitaemia were incubated overnight and […]
(§5) haematocrit maintained at 4%. On the subsequent day (designated as day 0) of gametocytogenesis, the culture containing early ring-stage parasites was first purified by sorbitol synchronisation to remove asynchronous trophozoites, and passed through a magnetic field in a sterile MACS® column in a SuperMACSTM II magnet to remove remaining late-stage parasites or later-stage gametocytes (negative selection). The culture medium was supplemented with 50 mM N-acetyl-D-glucosamine to inhibit asexual parasite proliferation, and changed daily. Sorbitol treatment was performed on Day 1, 5, and 6 to further remove asexual parasites. Gametocytes were magnetically enriched (positive selection) in a sterile column with a SuperMACSTM II magnet and eluted in culture media with 50 mM N-acetyl-D-glucosamine. These gametocytes were incubated overnight at 37 °C under microaerophilic conditions, and purity was assessed by examination under a light microscope (400× […]
(§6) Gametocyte viability was assessed as described by Ridgway et al. (21) with modifications.
(§7) Compounds or solvent controls (DMSO) were serially diluted across 96-well plates in culture media supplemented with 50 mM N-acetyl-D-glucosamine. Culture media without compound was used as a negative control. […]
(§8) control to determine background gametocyte fluorescence. Stage III-IV gametocytes (Day 7) or stage V (day 10) gametocytes were concentrated and added to the plate with 200 µL per well. The plate was incubated for 48 hours at 37 °C under humid microaerophilic conditions.
(§9) Parasites were then stained with 500 nM MitoTrackerTM Deep Red FM and 5 μg/ml Hoechst […]
(§10) cytometer as described above. […]
(§11) excluded. Live (positive) and dead (negative) gametocytes were differentiated by […]
(§12) percentage of each was calculated. […]

[2] = test system: P. falciparum stage V gametocytes; assay: P. falciparum gametocyte viability assay (MitoTracker, flow cytometry), stage V; format: cell-based, Plasmodium falciparum; conditions: 48 h
Method: as §1, §2, §3, §4, §5, §6, §7, §8, §9, §10, §11, §12

[3] = test system: human hepatoma cells (Huh7); assay: Human hepatoma viability assay (CellTiter-Blue); format: cell-based; conditions: Homo sapiens, Huh-7; 48 h, Huh7; read-out: IC50, human hepatoma inhibition (viability)
Method: Huh7 hepatoma viability assays were conducted in the same manner as the P. berghei assays, with metabolic capacity (indicating viability) measured with a fluorescence microplate reader after incubation with CellTiter-Blue® (Promega) for 3 h.
Appendix Fraser/Curtis et al. […]
Human Hepatoma Viability Assays:
The Huh7 hepatoma cell line (ATCC) was maintained under routine culture conditions in Dulbecco's Modified Eagle Medium (DMEM) containing 3.7 g/L NaHCO3 supplemented with 10% foetal bovine serum (FBS), 100 units/mL penicillin, and 100 μg/mL streptomycin at 37 °C in a humidified 5% CO2 incubator.
Viability assays were performed in parallel to the P. berghei growth inhibition. 10,000 Huh7 cells were seeded in 96-well and dark-sided microplates (Greiner Bio One) and cultured at 37°C, 5% CO2 and 80% humidity. The next day, the media was replaced with compounds or solvent controls (DMSO) serially diluted in culture media. Media was partially replaced with new drug dilutions over the following two days. After 48 hours, CellTiter-Blue® (Promega) was added according to the manufacturer’s instructions and incubated for 3 hours. Fluorescence intensity was measured with 530/25 ex and 590/20 em in a Synergy HTX plate reader (Agilent).

P. berghei liver stages = assay: Plasmodium berghei liver stage growth inhibition assay (luminescence, in Huh7 cells); conditions: for P. berghei liver stage growth, dose-response data points (Figure 3A): replicate data points

COc1cc(NC(C)CCCN)c2ncccc2c1 (stereo not shown) [Primaquine, primaquine, reference compound]
Gametocyte stage III-IV viability, percentage of control ([1]; 0.781250000 uM, 0.78125 µM): 95.42% and 99.73% and 94.08% and 101.8% and 105.1% and 104.7% and 100.9% (2×) and 98.19% and 96.58%
Gametocyte stage III-IV viability, percentage of control ([1]; 1.562500000 uM, 1.5625 µM): 95.15% (2×) and 94.61% and 99.24% and 100.4% and 98.94% and 101.3% and 96.75% and 94.78% and 98.39% and 95.38%
Gametocyte stage III-IV viability, percentage of control ([1]; 3.125000000 uM, 3.125 µM): 98.92% and 97.04% and 95.42% and 93.41% and 94.06% and 98.34% and 98.94% and 97.34% and 97.99% and 97.59%
Gametocyte stage III-IV viability, percentage of control ([1]; 6.250000000 uM, 6.25 µM): 98.92% and 103.8% and 95.15% and 101.3% and 99.57% and 96.95% and 89.77% and 92.16% and 101.4% and 98.59% and 97.59%
Gametocyte stage III-IV viability, percentage of control ([1]; 12.500000000 uM, 12.5 µM): 94.88% and 91.65% and 92.46% and 91.95% and 85.99% and 84% and 83.2% and 99.8% and 98.59% and 96.58%
Gametocyte stage III-IV viability, percentage of control ([1]; 25.000000000 uM): 79.16% and 90.84% and 90.57% and 89.5% and 87.42% and 88.71% and 66.47% and 62.28% and 62.48% and 96.99% and 92.97% and 89.75%
Gametocyte stage III-IV viability, percentage of control ([1]; 50.000000000 uM): 68.48% and 81.96% and 79.26% and 79.53% and 71.16% and 70.66% and 55.31% and 29.42% and 60.69% and 80.71% and 75.49% and 72.07%
Gametocyte stage III-IV viability, percentage of control ([1]; 100.000000000 uM): 13.88% and 70.94% and 81.83% and 86.47% and 12.9% and 10.48% and -20.11% and -20.13% and -19.64% and 38.56% and 39.79% and 36.92%
Gametocyte stage III-IV viability, percentage of control ([1]; 200.000000000 uM): -26.52% and -4.004% and -1.274% and -24.53% and -24.5% and -24.31% and -27.02% and -23.13% and -23.83%
viability at 0.78125 µM ([1]; Plasmodium falciparum, read-out: Gametocyte stage III-IV viability, percentage of control, 0.781250000 uM, 48 h, replicate values, source data Fig. 2C): 101%
viability at 1.5625 µM ([1]; Plasmodium falciparum, read-out: Gametocyte stage III-IV viability, percentage of control, 1.562500000 uM, 48 h, replicate values, source data Fig. 2C): 98.8%
viability at 3.125 µM ([1]; Plasmodium falciparum, read-out: Gametocyte stage III-IV viability, percentage of control, 3.125000000 uM, 48 h, replicate values, source data Fig. 2C): 93.3%
viability at 6.25 µM ([1]; Plasmodium falciparum, read-out: Gametocyte stage III-IV viability, percentage of control, 6.250000000 uM, 48 h, replicate values, source data Fig. 2C): 94.2%
viability at 12.5 µM ([1]; Plasmodium falciparum, read-out: Gametocyte stage III-IV viability, percentage of control, 12.500000000 uM, 48 h, replicate values, source data Fig. 2C): 89%
pIC50 ([1]; Plasmodium falciparum, read-out: IC50, P. falciparum gametocyte stage III-IV inhibition): 4.22
Gametocyte stage V viability, percentage of control ([2]; 1.562500000 uM, replicate values, source data Fig. 2D, 1.5625 µM): 97.48% and 95.25% and 88.04%
pIC50 ([2]; Plasmodium falciparum, read-out: IC50, P. falciparum gametocyte stage V inhibition): 4.83
pIC50 [3]: 4.74
P. berghei liver stage growth, dose-response data points (Figure 3A) (P. berghei liver stages; 0.015241580 uM): 93.67 and 95.48 and 110.9 and 122 and 82.26 and 95.7 and 96.97 and 92.94 and 110.1
P. berghei liver stage growth, dose-response data points (Figure 3A) (P. berghei liver stages; 0.045724740 uM): 108.1 and 96.38 and 105.4 and 91.89 and 98.42 and 97.49 and 70.73 and 69.42 and 92.75
P. berghei liver stage growth, dose-response data points (Figure 3A) (P. berghei liver stages; 0.137174210 uM): 105.4 and 121.7 and 113.6 and 95.08 and 83.35 and 110.5 and 75.51 and 85.25 and 113.8
Figure 3E dose-response value (replicates) (P. berghei liver stages; 0.212890630 uM): 110.2 and 105.1 and 104.6 and 108.5 and 84.79 and 105.5 and 104.2 and 95.71 and 86.14 and 93.88 and 93.04
P. berghei liver stage growth, dose-response data points (Figure 3A) (P. berghei liver stages; 0.411522630 uM): 105.4 and 115.4 (2×) and 82.34 and 95.47 and 107.6 and 82.44 and 82.72 and 115.2
Figure 3E dose-response value (replicates) (P. berghei liver stages; 0.425781250 uM): 102.3 and 92.15 and 106 and 104.8 and 98.19 and 93.53 and 98.84 and 93.27 and 90.28
Figure 3E dose-response value (replicates) (P. berghei liver stages; 0.851562500 uM): 96.31 and 95.61 and 102.1 and 104.8 and 94.91 and 106 and 91.69 and 92.32 and 88 and 100 and 90.58 and 89.08
P. berghei liver stage growth, dose-response data points (Figure 3A) (P. berghei liver stages; 1.234567900 uM): 95.48 and 107.2 and 78.84 and 85.44 and 95.31 and 57.42 and 69.42 and 85.07
Figure 3E dose-response value (replicates) (P. berghei liver stages; 1.703125000 uM): 88.27 and 98.56 and 102.4 and 105.9 and 83.84 and 86.74 and 92.09 and 88.62
Figure 3E dose-response value (replicates) (P. berghei liver stages; 3.406250000 uM): 97.54 and 95.04 and 93.86 and 98.31 and 97.98 and 92.53 and 88.24 and 88.2 and 80.51 and 79.64 and 66.71 and 72.77
P. berghei liver stage growth, dose-response data points (Figure 3A) (P. berghei liver stages; 3.703703700 uM): 52.94 and 55.66 and 62.9 and 27.87 and 29.81 and 24.61 and 21.71 and 31.37 and 31.18
Figure 3E dose-response value (replicates) (P. berghei liver stages; 6.812500000 uM): 52.26 and 84.6 and 91.44 and 91.35 and 88.74 and 72.33 and 82.87 and 73.41 and 70.7 and 48.65 and 46.53 and 51.73
P. berghei liver stage growth, dose-response data points (Figure 3A) (P. berghei liver stages; 11.111111100 uM): 2.262 and -2.262 (2×) and 1.062 and 1.606 and 2.072 and 3.062 and 2.968 and 4.186
Figure 3E dose-response value (replicates) (P. berghei liver stages; 13.625000000 uM): 24.3 and 46.65 and 52.62 and 55.32 and 16.73 and 22.67 and 37.29 and 44.07 and 37.02 and 20.99 and 23.94 and 27.39
Figure 3E dose-response value (replicates) (P. berghei liver stages; 27.250000000 uM): 0.8156 and 1.015 and 0.9272 and 0.814 and 1.004 and 2.12 and 0.3528 and 0.5411 and 2.525 and 0.8793 and 0.07968 and 0.8298
P. berghei liver stage growth, dose-response data points (Figure 3A) (P. berghei liver stages; 33.333333300 uM): -1.357 (3×) and 0.4403 and 0.2849 and 0.3626 and 1.093 and 1.749 and 0.9997
P. berghei liver stage growth, dose-response data points (Figure 3A) (P. berghei liver stages; 100.000000000 uM): -3.167 and -0.4525 and 0.4525 and -0.0259 and 0.0518 (2×) and -0.03124 (2×) and 0.5311
Figure 3E dose-response value (replicates) (P. berghei liver stages; 109.000000000 uM): 3.02 and 0.4007 and 0.2308 and 0.4951 and 3.634 and 2.894 and 0.4747 and 1.134 and 1.25 and 3.638 and 3.687 and 3.498
pIC50 (P. berghei liver stages; Plasmodium berghei, Huh-7, 48 h, read-out: IC50, P. berghei liver stage growth inhibition): 5.54
